Assay results reported in ChEMBL document CHEMBL5346971, “Discovery of the First Irreversible HDAC6 Isoform Selective Inhibitor with Potent Anti-Multiple Myeloma Activity” (J Med Chem, 2023).
pIC50: −log10 of the molar value. Calls of active or inactive are those of the source. The rule behind the calls is not given here.

Columns and labels:
RPMI-8226 [1] = assay: Antiproliferative activity against human RPMI-8226 cells assessed as inhibition of cell proliferation incubated for 48 hrs by CCK8 assay; type: functional, cell-based; details: RPMI-8226, 48 h
U-266 = assay: Antiproliferative activity against human U-266 cells assessed as inhibition of cell proliferation incubated for 48 hrs by CCK8 assay; type: functional, cell-based; details: U-266, 48 h
MM1.S = assay: Antiproliferative activity against human MM1.S cells assessed as inhibition of cell proliferation incubated for 48 hrs by CCK8 assay; type: functional, cell-based
[2] = Cytotoxicity against human L02 cells assessed as inhibition of cell proliferation incubated for 48 hrs by CCK8 assay; type: toxicity, cell-based
RPMI-8226 [3] = assay: Induction of apoptosis in human RPMI-8226 cells assessed as proportion of viable cells at 0.5 uM incubated for 24 hrs by AnnexinV-FITC/PI staining based flow cytometry (reference value: 84.71%); type: functional, cell-based
RPMI-8226 [4] = assay: Induction of apoptosis in human RPMI-8226 cells assessed as proportion of early apoptotic cells at 0.5 uM incubated for 24 hrs by AnnexinV-FITC/PI staining based flow cytometry (reference value: 10.63%); type: functional, cell-based
RPMI-8226 [5] = assay: Induction of apoptosis in human RPMI-8226 cells assessed as proportion of late apoptotic cells at 0.5 uM incubated for 24 hrs by AnnexinV-FITC/PI staining based flow cytometry (reference value: 4.18%); type: functional, cell-based
RPMI-8226 [6] = assay: Induction of apoptosis in human RPMI-8226 cells assessed as proportion of necrotic cells at 0.5 uM incubated for 24 hrs by AnnexinV-FITC/PI staining based flow cytometry (reference value: 0.49%); type: functional, cell-based
RPMI-8226 [7] = assay: Induction of apoptosis in human RPMI-8226 cells assessed as proportion of viable cells at 2.5 uM incubated for 24 hrs by AnnexinV-FITC/PI staining based flow cytometry (reference value: 84.71%); type: functional, cell-based
RPMI-8226 [8] = assay: Induction of apoptosis in human RPMI-8226 cells assessed as proportion of early apoptotic cells at 2.5 uM incubated for 24 hrs by AnnexinV-FITC/PI staining based flow cytometry (reference value: 10.63%); type: functional, cell-based
RPMI-8226 [9] = assay: Induction of apoptosis in human RPMI-8226 cells assessed as proportion of late apoptotic cells at 2.5 uM incubated for 24 hrs by AnnexinV-FITC/PI staining based flow cytometry (reference value: 4.18%); type: functional, cell-based
RPMI-8226 [10] = assay: Induction of apoptosis in human RPMI-8226 cells assessed as proportion of necrotic cells at 2.5 uM incubated for 24 hrs by AnnexinV-FITC/PI staining based flow cytometry (reference value: 0.49%); type: functional, cell-based
RPMI-8226 [11] = assay: Induction of cell cycle arrest in human RPMI-8226 cells assessed as proportion of cells at G1 phase at 2.5 uM incubated for 24 hrs by PI staining based flow cytometry (reference value: 33.5%); type: functional
RPMI-8226 [12] = assay: Induction of cell cycle arrest in human RPMI-8226 cells assessed as proportion of cells at S phase at 2.5 uM incubated for 24 hrs by PI staining based flow cytometry (reference value: 46.7%); type: functional
RPMI-8226 [13] = assay: Induction of cell cycle arrest in human RPMI-8226 cells assessed as proportion of cells at G2/M phase at 2.5 uM incubated for 24 hrs by PI staining based flow cytometry (reference value: 19.8%); type: functional
RPMI-8226 [14] = assay: Antitumor activity against human RPMI-8226 cells xenografted in NCG mouse assessed as T/C ratio at 50 ug administered intratumorally every 2 days by vernier caliper analysis; type: functional; details: dose 50 µg; route it(Intratumoral)
RPMI-8226 [15] = assay: Antitumor activity against human RPMI-8226 cells xenografted in NCG mouse assessed as tumor growth inhibition at 50 ug administered intratumorally every 2 days by vernier caliper analysis; type: functional; details: dose 50 µg; route it(Intratumoral)
[16] = Toxicity in NCG mouse xenografted with human RPMI-8226 cells assessed as body weight loss at 50 ug administered intratumorally every 2 days; details: in vivo, other, 48 h, route it(Intratumoral), dose 50 µg
[17] = Toxicity in NCG mouse xenografted with human RPMI-8226 cells assessed as animal's death at 50 ug administered intratumorally every 2 days; details: in vivo, other, 48 h, route it(Intratumoral), dose 50 µg
[18] = Toxicity in NCG mouse xenografted with human RPMI-8226 cells assessed as weakness at 50 ug administered intratumorally every 2 days; details: in vivo, other, 48 h, route it(Intratumoral), dose 50 µg

**Q.** With O=C(CCCCCCNC(=O)c1cnc(N(c2ccccc2)c2ccccc2Cl)nc1)NO [CITARINOSTAT] as the compound, how does the pIC50 (RPMI-8226 [1]) read?
**A.** Its pIC50 is 5.46.

**Q.** And the pIC50 (U-266)?
**A.** The pIC50 was 5.37.

**Q.** And the pIC50 (MM1.S)?
**A.** Its pIC50 is 5.70.

**Q.** And the IC50 at 48 h [2]?
**A.** The IC50 at 48 h was 15.2 µM.

**Q.** And the Activity (RPMI-8226 [3])?
**A.** The Activity was “Active”.

**Q.** What about the Activity (RPMI-8226 [4]) of the same compound?
**A.** Its Activity is “Active”.

**Q.** What about the Activity (RPMI-8226 [5]) of the same compound?
**A.** The Activity was “Active”.

**Q.** And the Activity (RPMI-8226 [6])?
**A.** The Activity was “Active”.

**Q.** What about the Activity (RPMI-8226 [7]) of the same compound?
**A.** The Activity was “Active”.

**Q.** What about the Activity (RPMI-8226 [8]) of the same compound?
**A.** The Activity was “Active”.

**Q.** And the Activity (RPMI-8226 [9])?
**A.** Its Activity is “Active”.

**Q.** What about the Activity (RPMI-8226 [10]) of the same compound?
**A.** The Activity was “Active”.

**Q.** What about the Activity (RPMI-8226 [11]) of the same compound?
**A.** The Activity was 32.7%.

**Q.** What about the Activity (RPMI-8226 [12]) of the same compound?
**A.** The Activity was 44.7%.

**Q.** And the Activity (RPMI-8226 [13])?
**A.** The Activity was 22.6%.

**Q.** And the T/C (RPMI-8226 [14])?
**A.** The T/C was 61%.

**Q.** What about the TGI (RPMI-8226 [15]) of the same compound?
**A.** Its TGI is 46%.

**Q.** What about the Activity [16] of the same compound?
**A.** Its Activity is “Non-Toxic”.

**Q.** What about the Activity [17] of the same compound?
**A.** The Activity was “Toxic”.

**Q.** And the Activity [18]?
**A.** Its Activity is “Toxic”.
